The record followed here is PubChem BioAssay (NCI).

The subject of experiment [1] is BT-549 breast. The experiment in a line: NCI anticancer screen, dose series, 48 h.
The test system of experiment [2] is MCF7 breast. The experiment in a line: NCI anticancer screen, dose series, 48 h.

SMILES strings stand for the structures.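 Each compound was tested at five concentrations against cells in 96-well plates for 48 hours. GI50 is the concentration that inhibits growth by half. TGI denotes the concentration required for complete inhibition of growth.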

`COc1cc(SC)ccc1C(=O)N1CCCC(C)C1` (stereo not given): in experiment [1], the GI50 is > 100 µM and the TGI was > 100 µM. In experiment [2], the GI50 is 79 µM and the TGI is > 100 µM.

For `Cc1ccc(Nc2ccnc(Nc3cccc(C(N)=O)c3)n2)cc1O`, the values for the GI50 in experiment [1] and in experiment [2] were 6.4 µM and 8.28 µM, respectively. Moreover, the TGI in experiment [1] and in experiment [2] was > 25 µM each time.

For the compound `CCNC1=CC(=O)c2ncccc2C1=O`, in experiment [1], the GI50 was 1.54 µM and the TGI came to 3.15 µM. In experiment [2], the GI50 was 1.17 µM and the TGI worked out at 3.2 µM.

Turning to `Cc1[nH]nc(C(=O)N/N=C/c2cccs2)c1N=NN(C)C`, the TGI is 27.3 µM in experiment [1] and 47.4 µM in experiment [2].

Consider `CN1C=CN(Cc2ccc(-c3ccccn3)nc2)[CH-]1.CN1C=CN(Cc2ccc(-c3ccccn3)nc2)[CH-]1.[Au+3]`, for which, in experiment [1], the GI50 is 2.46 µM and the TGI was 20.1 µM. Further, in experiment [2], the GI50 was 0.314 µM and the TGI amounted to 12.2 µM.

For `Cn1cc(/C=C2\C(=O)Nc3cccnc32)c2ccccc21`, the GI50 is > 25 µM in experiment [1] and 8.04 µM in experiment [2]. The TGI in experiment [1] and in experiment [2] was > 25 µM each time.

Regarding `O=c1c2c(=NCCCN3CCCC3)cc3c(=O)n(CCCN4CCCC4)c(=O)c4c(NCCCN5CCCC5)cc(c(O)n1CCCN1CCCC1)c2c4-3`, in experiment [1], the GI50 is 14.1 µM and the TGI was 36.1 µM. Further, in experiment [2], the GI50 is 1.42 µM and the TGI was 10.9 µM.

For `COc1ccccc1OCC(O)CO` (stereo not given), in experiment [1], the GI50 is > 100 µM and the TGI was > 100 µM. For the same compound, in experiment [2], the GI50 was > 100 µM and the TGI was > 100 µM.

Take `NC(=O)c1ccc(-c2c3ccccc3cc3c2ccc2ccccc23)cc1`: in experiment [2], the GI50 was 1.88 µM and the TGI was found to be 11.6 µM.

With `CC(Cl)CC(=O)Nc1ccc2c(c1)oc(=O)c1cc(NC(=O)CC(C)Cl)ccc12` (stereo not given), in experiment [1], the GI50 was 22.1 µM and the TGI is 53.3 µM. Also, in experiment [2], the GI50 was 7.9 µM and the TGI came out at 23.1 µM.

In the case of `C/C(=N\n1c(N)c(C#N)c(-c2ccc(Cl)cc2)c(C#N)c1=O)c1cccnc1`, in experiment [2], the GI50 is > 100 µM and the TGI was > 100 µM.

For `CCn1cc(C2NC(=O)c3cc(F)ccc3N2)c2cccc(Cl)c21` (stereo not given), in experiment [1], the GI50 is 0.327 µM and the TGI was > 100 µM. Further, in experiment [2], the GI50 was 0.0913 µM and the TGI is > 100 µM.

`COCCn1cc(-c2csc(-c3c[nH]c4ccc(F)cc34)n2)c2cccnc21`: in experiment [1], the GI50 was 4.26 µM and the TGI is > 100 µM. Moreover, in experiment [2], the GI50 was 2.09 µM and the TGI is > 100 µM.

`NC(=O)c1ccc(NC(=O)c2oc3ccccc3c2-c2cnn(-c3ccccc3)c2)cc1`: in experiment [1], the GI50 is 3.51 µM and the TGI is > 100 µM. In experiment [2], the GI50 is > 100 µM and the TGI was > 100 µM.

As to `O=C(N/N=C\c1cc(Cl)ccc1O)N/N=C/c1cc(Cl)ccc1O`, the GI50 in experiment [1] is > 100 µM; in experiment [2] it was 3.12 µM. Moreover, the TGI in experiment [1] and in experiment [2] was > 100 µM in each case.

For the compound `CN(C)c1ccc(/C=N/Nc2ccc(-c3nc4ccccc4[nH]3)cc2)cc1`, in experiment [1], the GI50 was 12.4 µM and the TGI is 35.5 µM. Also, in experiment [2], the GI50 is 8.44 µM and the TGI is 35.6 µM.

`C[C@@H]1CC[C@H]2C(CN3CCN(CC4=C(C(F)(F)F)O[C@@H]5O[C@@]6(C)CC[C@H]7[C@H](C)CC[C@@H]4[C@@]57OO6)CC3)=C(C(F)(F)F)O[C@@H]3O[C@@]4(C)CC[C@@H]1[C@]32OO4`: in experiment [1], the GI50 is 2.53 µM and the TGI was > 100 µM. Also, in experiment [2], the GI50 is 3.13 µM and the TGI was > 100 µM.

On to `Fc1ccc(-c2c(-c3ccncc3)n(CCN3CCOCC3)c3cccnc23)cc1`, for which the GI50 in experiment [1] and in experiment [2] was > 25 µM in each case. For the same compound, the TGI in experiment [1] and in experiment [2] was > 25 µM throughout.

With `COCCOCCOCCOCCOc1ccc2c(c1)C(=O)c1nc3ncccc3c(=O)n1-2`, in experiment [1], the GI50 was 1.1 µM and the TGI is 2.3 µM. In addition, in experiment [2], the GI50 was 0.799 µM and the TGI stood at 2.2 µM.

On to `ClCc1ccc(Cn2cnc3ncnc(Cl)c32)cc1`, for which, in experiment [1], the GI50 is 3.75 µM and the TGI was determined as 16.9 µM. Moreover, in experiment [2], the GI50 was 1.35 µM and the TGI was 2.94 µM.

As to `C=C1C(=O)O[C@H]2[C@H](OC(C)=O)[C@@H](C)CCC/C(C)=C/CC[C@]3(CO3)[C@H](O)C[C@@H]12`, in experiment [1], the GI50 was 3.77 µM and the TGI came out at 15.4 µM. In experiment [2], the GI50 is 3.24 µM and the TGI was 12 µM.

`N#CC(C#N)=C/C=C/c1cccc([N+](=O)[O-])c1`: in experiment [2], the GI50 was 0.482 µM and the TGI is 9.55 µM.
